In assay [1] the test system is MIA-PaCa-2 pancreatic cancer cell line (KRAS G12C). The assay can be described thus: Cell proliferation assay (CellTiter 96 Aqueous One). It counts as cell-based. The note with it: Homo sapiens; for IC50: MIA PaCa-2, MIA PaCa-2; for inhibition at 10 µM: MIA PaCa-2, read-out: % inh cell proliferation (10 μM) in MIA PaCa-2. In a few lines:
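Read-out is MTS-based viability (CellTiter 96 Aqueous One) after 2–4 days of compound exposure at 37 °C in 10% FBS with 0.3% DMSO.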

Assay [2] has as its system Akt phosphorylation in Panc-1 cells. The assay can be described thus: Western AKT cell-based phosphorylation assay. Further details: species or system human. The note with it: at 10 μM, values in brackets < > are activation %, not inhibition. The method in brief: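 Phospho-Akt (Ser473) western blot of Panc-1 lysates, with Ponceau S to confirm uniform loading. Before lysis, cells were serum-starved overnight (0.5% FBS), incubated 6 h at 37° C with 10 μM compound in 0.3% DMSO and stimulated 15 min with 1.5 ng/ml EGF.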

Where only a bound is given, the exact number is not on record here.

In the case of `CO[C@@H]1CC[C@H]1CNc1nc(-c2nccn2C)nc2sc(-c3ccn(C(C)C)n3)c(C)c12` (racemic) [Compound 61, rac-6-(1-Isopropyl-1H-pyrazol-3-yl)-N-(((1S,2R)-2-methoxycyclobutyl)methyl)-5-methyl-2-(1-methyl-1H-imidazol-2-yl)thieno[2,3-d]pyrimidin-4-amine], in assay [1], the half-maximal inhibitory concentration (IC50) is below 1 µM and the inhibition at 10 µM was in the range of 76 to 100%. In addition, the “% inh of AKT phosphorylation in PANC-1” value in assay [2] is 0 (0% inhibition).
Taken in the same sequence, the figures for `O=C(c1nc(O)c2scc(-c3ccccn3)c2n1)N1CCOCC1` [Compound 22, (4-Hydroxy-7-(pyridin-2-yl)thieno[3,2-d]pyrimidin-2-yl)(morpholino)methanone] were above 10 µM, 1 to 25% and 0 (0% inhibition).
On to `CO[C@H]1CC[C@@H](Nc2nc(C(=O)N3CCOCC3)nc3sccc23)C1` (racemic) [Compound 12, Rac-(4-(((1R,3S)-3-methoxycyclopentyl)amino)thieno[2,3-d]pyrimidin-2-yl)(morpholino)methanone], for which, in assay [1], the 50% inhibitory concentration (IC50) was above 10 µM and the inhibition at 10 µM was 1 to 25%. Besides, the “% inh of AKT phosphorylation in PANC-1” value in assay [2] is 0 (0% inhibition).
For `Cc1c(-c2ccn(C(C)C)n2)sc2nc(-c3nccn3C)nc(NC3CCOC3)c12` (racemic) [Compound 37, rac-6-(1-Isopropyl-1H-pyrazol-3-yl)-5-methyl-2-(1-methyl-1H-imidazol-2-yl)-N-(tetrahydrofuran-3-yl)thieno[2,3-d]pyrimidin-4-amine] the same measures were 5 to 10 µM, 51 to 75% and 0 (0% inhibition).
For the compound `Cn1ccnc1-c1nc(O)c2scc(-c3ncccc3F)c2n1` [Compound 30, 7-(3-Fluoropyridin-2-yl)-2-(1-methyl-1H-imidazol-2-yl)thieno[3,2-d]pyrimidin-4-ol], in assay [1], the IC50 is above 10 µM and the inhibition at 10 µM was 26 to 50%. Further, the “% inh of AKT phosphorylation in PANC-1” value in assay [2] is recorded as 0 (0% inhibition).
As for `Oc1nc(-c2nccn2CCOCC(F)(F)F)nc2c(-c3ccccn3)csc12` [Compound 81, 7-(Pyridin-2-yl)-2-(1-(2-(2,2,2-trifluoroethoxy)ethyl)-1H-imidazol-2-yl)thieno[3,2-d]pyrimidin-4-ol], in assay [1], the IC50 fell in the range of 1 to 4.99 µM and the inhibition at 10 µM is 76 to 100%. In addition, the “% inh of AKT phosphorylation in PANC-1” value in assay [2] is listed as “<D>”.
For `COCC1CCN(c2nc(-c3nccn3C)nc3sc(-c4ccn(C(C)C)n4)c(C(F)(F)F)c23)C1` (racemic) [Compound 74, Rac-6-(1-Isopropyl-1H-pyrazol-3-yl)-4-(3-(methoxymethyl)pyrrolidin-1-yl)-2-(1-methyl-1H-imidazol-2-yl)-5-(trifluoromethyl)thieno[2,3-d]pyrimidine], in assay [1], the IC50 was below 1 µM and the inhibition at 10 µM is 76 to 100%. Further, the “% inh of AKT phosphorylation in PANC-1” value in assay [2] is given as 0 (0% inhibition).
Regarding `NC(=O)c1nc(O)c2scc(-c3ccccn3)c2n1` [Compound 18, 4-Hydroxy-7-(pyridin-2-yl)thieno[3,2-d]pyrimidine-2-carboxamide], in assay [1], the IC50 is above 10 µM and the inhibition at 10 µM stood at 0%. Also, the “% inh of AKT phosphorylation in PANC-1” value in assay [2] is listed as 0 (0% inhibition).
As to `Oc1nc(-c2nccn2CCOCc2ccccc2)nc2c(-c3ccccn3)csc12` [Compound 83, 2-(1-(2-(Benzyloxy)ethyl)-1H-imidazol-2-yl)-7-(pyridin-2-yl)thieno[3,2-d]pyrimidin-4-ol], in assay [1], the IC50 was 5 to 10 µM and the inhibition at 10 µM was 76 to 100%. Moreover, the “% inh of AKT phosphorylation in PANC-1” value in assay [2] is listed as “<D>”.
Consider `Cc1c(-c2ccn(C(C)C)n2)sc2nc(-c3nccn3C)nc(NCCc3cn(C)cn3)c12` [Compound 58, 6-(1-Isopropyl-1H-pyrazol-3-yl)-5-methyl-2-(1-methyl-1H-imidazol-2-yl)-N-(2-(1-methyl-1H-imidazol-4-yl)ethyl)thieno[2,3-d]pyrimidin-4-amine], for which, in assay [1], the IC50 lay in the range of 5 to 10 µM and the inhibition at 10 µM was 76 to 100%. In addition, the “% inh of AKT phosphorylation in PANC-1” value in assay [2] was 0 (0% inhibition).
For the compound `COCCn1ccnc1-c1nc(N[C@@H]2CC[C@H](OC)C2)c2c(-c3ccccc3)c(-c3ccn(C)n3)sc2n1` (racemic) [Compound 6, Rac-N-((1R,3S)-3-methoxycyclopentyl)-2-(1-(2-methoxyethyl)-1H-imidazol-2-yl)-6-(1-methyl-1H-pyrazol-3-yl)-5-phenylthieno[2,3-d]pyrimidin-4-amine], in assay [1], the IC50 lay in the range of 1 to 4.99 µM and the inhibition at 10 µM fell in the range of 76 to 100%. In assay [2], the “% inh of AKT phosphorylation in PANC-1” value is recorded as 0 (0% inhibition).
Regarding `COc1ccnc(Nc2nc(-c3nccn3C)nc3sc(-c4ccn(C(C)C)n4)c(C)c23)n1` [Compound 68, 6-(1-Isopropyl-1H-pyrazol-3-yl)-N-(4-methoxypyrimidin-2-yl)-5-methyl-2-(1-methyl-1H-imidazol-2-yl)thieno[2,3-d]pyrimidin-4-amine], in assay [1], the concentration for half-maximal inhibition (IC50) is 1 to 4.99 µM and the inhibition at 10 µM was 76 to 100%. Also, in assay [2], the “% inh of AKT phosphorylation in PANC-1” value was “<A>”.
Taken in the same sequence, the figures for `COCCNc1nc(-c2nccn2C)nc2sc(-c3ccn(C(C)C)n3)c(C)c12` [Compound 35, 6-(1-Isopropyl-1H-pyrazol-3-yl)-N-(2-methoxyethyl)-5-methyl-2-(1-methyl-1H-imidazol-2-yl)thieno[2,3-d]pyrimidin-4-amine] were 5 to 10 µM, 76 to 100% and 0 (0% inhibition).
Taken in the same sequence, the figures for `Cc1c(-c2ccn(C(C)C)n2)sc2nc(-c3nccn3C)nc(NCCC3CCC(=O)N3)c12` (racemic) [Compound 56, rac-5-(2-((6-(1-Isopropyl-1H-pyrazol-3-yl)-5-methyl-2-(1-methyl-1H-imidazol-2-yl)thieno[2,3-d]pyrimidin-4-yl)amino)ethyl)pyrrolidin-2-one] were above 10 µM, 1 to 25% and 0 (0% inhibition).
`Cc1c(-c2ccn(C(C)C)n2)sc2nc(-c3ccccn3)nc(N3CCC(COC(C)C)C3)c12` (stereo not drawn) [Compound 72, 4-(3-(Isopropoxymethyl)pyrrolidin-1-yl)-6-(1-isopropyl-1H-pyrazol-3-yl)-5-methyl-2-(pyridin-2-yl)thieno[2,3-d]pyrimidine]: in assay [1], the IC50 is 5 to 10 µM and the inhibition at 10 µM was 51 to 75%. Also, in assay [2], the “% inh of AKT phosphorylation in PANC-1” value is recorded as “B (26-50% inhibition)”.
Regarding `CCOCCn1ccnc1-c1nc(O)c2scc(-c3ccccn3)c2n1` [Compound 80, 2-(1-(2-Ethoxyethyl)-1H-imidazol-2-yl)-7-(pyridin-2-yl)thieno[3,2-d]pyrimidin-4-ol], in assay [1], the IC50 lay in the range of 1 to 4.99 µM and the inhibition at 10 µM lay in the range of 76 to 100%. Also, in assay [2], the “% inh of AKT phosphorylation in PANC-1” value was “<D>”.
Taken in the same sequence, the figures for `COc1cccc(Nc2nc(-c3nccn3C)nc3sc(-c4ccn(C(C)C)n4)c(C)c23)n1.Cl` [Compound 65, 6-(1-Isopropyl-1H-pyrazol-3-yl)-N-(6-methoxypyridin-2-yl)-5-methyl-2-(1-methyl-1H-imidazol-2-yl)thieno[2,3-d]pyrimidin-4-amine hydrochloride salt] were 5 to 10 µM, 76 to 100% and “B (26-50% inhibition)”.
For `CO[C@H]1CCCN(c2nc(-c3nccn3C)nc3sc(-c4ccn(C(C)C)n4)c(C)c23)C1` [Compound 49, (S)-6-(1-Isopropyl-1H-pyrazol-3-yl)-4-(3-methoxypiperidin-1-yl)-5-methyl-2-(1-methyl-1H-imidazol-2-yl)thieno[2,3-d]pyrimidine] the same measures were 5 to 10 µM, 76 to 100% and “D (76-100% inhibition)”.

(Values after patent publication US20230227466A1, “SUBSTITUTED THIENOPYRIMIDINES THAT INTERACT WITH THE RAS SUPERFAMILY FOR THE TREATMENT OF CANCERS, INFLAMMATORY DISEASES, RASOPATHIES, AND FIBROTIC DISEASE” (SHY Therapeutics, LLC, priority 2020, published 2023).)
